Data reported in US8936787B2, “Peptides promoting lipid efflux” (The United States of America as represented by the …, priority 2008, dated 2015).
“Also recorded” adds a separate entry of the source. Square brackets hold non-standard residues; d marks the D form. Ends that are not written are not given here. Peptide text beside a SMILES is read from it.

Legend:
[1] = system: HeLa cells stably transfected with human ABCA1 cDNA (ABCA1 cells); assay: Cholesterol and phospholipid efflux from ABCA1 cells; type: cell-based; settings: for cholesterol efflux from ABCA1 cells to detergent: sublytic concentration (taurodeoxycholate 0.02%, 1 hour)
Procedure: (§1) Percentage efflux was calculated after subtracting the radioactive counts in the blank media (αMEM plus 1 mg/ml of BSA), and expressed as the percent of total radioactive counts removed from the cells during the efflux period.
(§2) Cell fixation was performed by a 10 minute treatment with 3% paraformaldehyde in phosphate buffered saline (PBS), followed by three washes with blank media. Lactate dehydrogenase (LDH) release from cells into the media was measured enzymatically (Roche Diagnostics, Indianapolis, Ind.) and expressed, after subtraction of LDH released into blank media, as the percentage of total cell LDH. Total cell LDH was determined after cell solubilization with 1% Triton X-100.

ABCA1 cells [2] = assay: LDH release from ABCA1 cells; type: cell-based, human; settings: 40 μg/ml for 18 hours
Procedure: as §2
(§3) The microsolubilization of the plasma membrane of cells could, therefore, be potentially cytotoxic, but no morphologic effect was observed on the cells after incubation with the peptides or apoA-I, during the efflux experiments. Incubation of the cells with L-37pA and D-37pA at the maximum concentration and time used for the efflux studies (40 μg/ml for 18 hours) did, however, consistently result in the release of a small amount of LDH from both cell lines (control cells: L-37pA (6.1%±0.2), D-37pA (6.6%±0.1); ABCA1 cells: L-37pA (4.3%±0.04), D-37pA (5.7%±0.1)).

control cells = assay: LDH release from control cells; type: cell-based; settings: 40 μg/ml for 18 hours
Procedure: as §2, §3

[3] = system: HeLa cells transfected with only a hygromycin-resistant control plasmid (control cells); assay: Cholesterol and phospholipid efflux from control cells; type: cell-based; settings: for lipid (cholesterol and phospholipid) efflux from control cells: 18 hours
Procedure: as §1, §2

C57B1/6 mice = assay: Plasma triglycerides in C57B1/6 mice, 18A-C-II; type: in vivo; settings: 1 mg (30 mg/kg) co-injected
Procedure: FIG. 18 is a graph illustrating the ability of 18A-C-II:POPC peptide (peptide with SEQ ID NO: 70) to prevent hypertriglyceridemia. The 18A-C-II:POPC peptide was lipidated with POPC at the ratio of 1:7. Hypertriglyceridemia was induced in C57B1/6 mice by a 2 mg (60 mg/kg) bolus intravenous (IV) injection of free 5A peptide (Δ). […] In addition, a single IV dose of 1 mg of the 18A-C-II:POPC peptide lowered the plasma triglyceride levels in normal C57B1 mice (□) compared to saline (⋄).
18A-C-II peptide (SEQ ID NO: 70) was complexed with POPC at a 1:7 molar ratio using a co-lyophilization procedure by which the free peptide and POPC were co-dissolved in glacial acetic acid and lypophilized. The dry powder was reconstituted with saline and heated between 37° C. to 50° C. to reconstitution, which results in a clear solution of particles containing both the 18A-C-II peptide and POPC.
Hypertriglyceridemia was induced in C57B1/6 mice by a 2 mg (60 mg/kg) bolus IV injection of free 5A peptide (A). […] In addition, a single IV dose of 1 mg of the 18A-C-II:POPC peptide lowered the plasma triglyceride levels in normal C57B1 mice (□) compared to saline (⋄).

BHK and BHK-ABCA1 cells = assay: Cholesterol efflux from BHK and BHK-ABCA1 cells; type: cell-based; settings: 20 ug/ml free peptide, 18 hours
Procedure: FIG. 23 is a graph illustrating the effect of 18A-C-II peptide on cholesterol efflux. BHK and BHK-ABCA1 cells were loaded with ^3H-cholesterol for 24 hours at 37° C. and then 20 ug/ml of the free 18A-C-II peptide was added as cholesterol acceptor to efflux for 18 hours. Percentage efflux was calculated by subtracting the radioactive counts in the blank from the radioactive counts in the presence of an acceptor and then dividing the result by the sum of the radioactive counts in the medium plus the cell fraction.
The effect of 18A-C-II peptide on cholesterol efflux was investigated by loading BHK and BHK-ABCA1 cells with ^3H-cholesterol for 24 hours at 37° C. and then adding 20 ug/ml of the free 18A-C-II peptide as cholesterol acceptor to efflux for 18 hours. Percentage efflux was calculated by subtracting the radioactive counts in the blank from the radioactive counts in the presence of an acceptor and then dividing the result by the sum of the radioactive counts in the medium plus the cell fraction.

red blood cells = assay: Red blood cell hemolysis assay; type: cell-based; settings: 1 hour at 37° C., maximum dose tested
Procedure: Red blood cells were incubated with the indicated concentration of the peptides for 1 hour at 37° C. Results are expressed as the mean of triplicates ±1 SD.
Approximately 25% of the red blood cells were lysed after 1 hour at the maximum dose tested (FIG. 9). Overall, the modified peptides containing the Ala substitutions were less cytotoxic, and the degree of cytotoxicity closely correlated with the number of Ala substitutions.

ABCA1 cells [4] = assay: Competitive binding of radiolabeled L-37pA to ABCA1 cells; design: species or system human; settings: 8 μM, the maximum concentration tested; 4° C.
Procedure: FIGS. 7A-7B are a pair of graphs illustrating the competitive binding of L-37pA peptide to ABCA1 transfected cells and control cells. ABCA1 cells (FIG. 7A) and control cells (FIG. 7B) were incubated for 3 hours at 4° C. with the indicated concentration of the competitor proteins [L-37pA (triangle), D-37pA (open square), apoA-I (closed circle), L2D-37pA (star), and L3D-37pA (open circle)] and were then washed and incubated for 1 hour at 4° C. with 1 μg/ml of radiolabeled L-37pA peptide. Results are expressed as the mean of triplicates ±1 SD.
The L-37pA peptide was labeled with ^125I using iodine monochloride. Confluent cells grown on 12-well plates were incubated for 3 hours at 4° C. with the indicated concentration of the unlabeled competitor peptide in αMEM media plus 10 mg/ml of BSA (FIG. 7). […] Cells were washed three times, and cell bound counts were determined after solubilization with 0.1 N NaOH.
A two-step sequential competitive binding assay was performed in order to prevent any potentially interfering interaction of the radiolabeled peptide with the competitor proteins (Mendez et al., J. Clin. Invest. 94:1698-1705, 1994). The cells were first incubated with the competitor proteins for 3 hours, washed, and then the cell binding of the radiolabeled L-37 peptide was measured. […]

Normal skin fibroblasts = assay: Cholesterol efflux from normal skin fibroblasts; type: cell-based; settings: 10 μg/ml, 18 hour
Procedure: (§4) FIG. 5 is a graph illustrating ABCA1-independent efflux of cholesterol from Tangier disease fibroblasts. Normal skin fibroblasts (open bars) and Tangier disease skin fibroblasts (solid bars) were examined for their ability to efflux cholesterol over an 18 hour period when treated with 10 μg/ml apoA-I (A), 10 μg/ml L-37pA (L), and 10 μg/ml D-37pA (D). Results are expressed as the mean of triplicates ±1 SD.
(§5) In order to confirm that the residual lipid efflux from the control cells to L-37pA and D-37pA (see FIG. 1) was not due to a low level of endogenous ABCA1, a Tangier disease fibroblast cell line with a truncated non-functional ABCA1 transporter (Remaley et al., Proc. Natl. Acad. Sci. USA 96:12685-12690, 1999) was evaluated for lipid efflux (FIG. 5).

[5] = system: Tangier disease fibroblast cell line with a truncated non-functional ABCA1 transporter; assay: Cholesterol efflux from Tangier disease fibroblasts; type: cell-based; settings: 10 μg/ml, 18 hour
Procedure: as §4, §5

[6] = 10 μg/ml, 30 hour efflux period

Molecule: C[C@H](CCC(=O)NCCC[N+](C)(C)CCCS(=O)(=O)[O-])[C@H]1CC[C@H]2[C@@H]3[C@H](O)C[C@@H]4C[C@H](O)CC[C@]4(C)[C@H]3C[C@H](O)[C@]12C [CHAPS, reference compound]
- cholesterol efflux from ABCA1 cells to detergent [1]: Nearly identical results

Molecule: CC(C)C[C@@H](NC(=O)[C@@H](Cc1c[nH]c2ccccc12)NC(=O)[C@H](N)CC(=O)O)C(=O)N[C@H](CCCCN)C(=O)N[C@H](C)C(=O)N[C@H](Cc1ccccc1)C(=O)N[C@H](Cc1ccc(O)cc1)C(=O)N[C@H](CC(=O)O)C(=O)N[C@H](CCCCN)C(=O)N[C@@H](C(=O)N[C@H](C)C(=O)N[C@H](CCC(=O)O)C(=O)N[C@H](CCCCN)C(=O)N[C@H](CC(C)C)C(=O)N[C@H](CCCCN)C(=O)N[C@H](CCC(=O)O)C(=O)N[C@H](C)C(=O)N[C@H](Cc1ccccc1)C(=O)N1CCC[C@@H]1C(=O)N[C@H](CC(=O)O)C(=O)N[C@H](Cc1c[nH]c2ccccc12)C(=O)N[C@H](CC(C)C)C(=O)N[C@H](CCCCN)C(=O)N[C@H](C)C(=O)N[C@H](Cc1ccccc1)C(=O)N[C@H](Cc1ccc(O)cc1)C(=O)N[C@H](CC(=O)O)C(=O)N[C@H](CCCCN)C(=O)N[C@@H](C(=O)N[C@H](C)C(=O)N[C@H](CCC(=O)O)C(=O)N[C@H](CCCCN)C(=O)N[C@H](CC(C)C)C(=O)N[C@H](CCCCN)C(=O)N[C@H](CCC(=O)O)C(=O)N[C@H](C)C(=O)N[C@H](Cc1ccccc1)C(=O)O)C(C)C)C(C)C [D-37pA] (H-[dD][dW][dL][dK][dA][dF][dY][dD][dK][dV][dA][dE][dK][dL][dK][dE][dA][dF][dP][dD][dW][dL][dK][dA][dF][dY][dD][dK][dV][dA][dE][dK][dL][dK][dE][dA][dF]-OH; N-terminus and C-terminus assumed)
- release of LDH from ABCA1 cells, percentage of total cell LDH (ABCA1 cells [2]): 5.7%±0.1
- release of LDH from control cells, percentage of total cell LDH (control cells): 6.6%±0.1

Molecule: C[C@H](CCC(=O)NCCS(=O)(=O)O)[C@H]1CC[C@H]2[C@@H]3CC[C@@H]4C[C@H](O)CC[C@]4(C)[C@H]3C[C@H](O)[C@]12C [taurodeoxycholate, reference compound]
- cholesterol efflux from control cells to detergent ([3]; taurodeoxycholate 0.02%, 1 hour): Approximately the same amount
- cholesterol efflux from ABCA1 cells to detergent [1]: small amount of cholesterol efflux

Molecule: DWLKAFYDKVAEKLKEAFPDLYSKSTAAMSTYTGIFTDQVLSVLKGEE [18A-C-II]
- increase in plasma triglycerides induced by free 5A peptide (60 mg/kg IV) (C57B1/6 mice): significantly reduced; also recorded: significantly halted
- cholesterol efflux, BHK-ABCA1 versus BHK cells (BHK and BHK-ABCA1 cells): significant difference

Molecule: DWLKAFYDKVAEKLKEAFPDWAKAAYDKAAEKAKEAA [5A]
- red blood cells lysed (hemolysis) (red blood cells): no appreciable hemolysis

Molecule: DWLKAFYDKVAEKLKEAFPDWLKAAYDKAAEKAKEAA [4A]
- red blood cells lysed (hemolysis) (red blood cells): no appreciable hemolysis

Molecule: DWLKAFYDKVAEKLKEAFPDWLKAAYDKVAEKAKEAA [3A]
- red blood cells lysed (hemolysis) (red blood cells): moderate degree of hemolysis

Molecule: DWLKAFYDKVAEKLKEAFPDWLKAFYDKVA EKLKEAF [37pA, reference compound]
- lipid (cholesterol and phospholipid) efflux from control cells [3]: also able to mediate cholesterol efflux
- lipid (cholesterol and phospholipid) efflux from ABCA1 cells ([1]; 18 hours): promoted ABCA1-mediated cholesterol efflux

Molecule: DWLKAFYDKVAEKLKEAFPDWLKAFYDKVAEKAKEAA [2A]
- red blood cells lysed (hemolysis) (red blood cells): moderate degree of hemolysis

Molecule: DWLKAFYDKVAEKLKEAFPDWLKAFYDKVAEKAKEAF [1A]
- red blood cells lysed (hemolysis) (red blood cells): moderate degree of hemolysis

Molecule: DWLKAFYDKVAEKLKEAFPDWLKAFYDKVAEKLKEAF [L-37pA]
- release of LDH from ABCA1 cells, percentage of total cell LDH (ABCA1 cells [2]): 4.3%±0.04
- release of LDH from control cells, percentage of total cell LDH (control cells): 6.1%±0.2

Molecule: NP-40 [reference compound]
- cholesterol efflux from ABCA1 cells to detergent [1]: Nearly identical results

Molecule: RMRITERDDFRGQMSEITDDCPSLQDRFHLTEVHSLRVLEGS (Gamma crystalline peptide.) [contains two non-amphipathic alpha helices, reference compound]
- lipid (cholesterol and phospholipid) efflux from control cells [3]: completely ineffective
- lipid (cholesterol and phospholipid) efflux from ABCA1 cells ([1]; 18 hours): completely ineffective

Molecule: apoA-I: apolipoprotein A-I, the predominant protein constituent of HDL
- cholesterol efflux from control cells over the time course [3, 6]: no significant increase above background
- lipid (cholesterol and phospholipid) efflux from control cells [3]: do not efflux significant amounts; also recorded: unable
- cholesterol efflux from ABCA1 cells after fixation with paraformaldehyde ([1]; 10 μg/ml, 18 hours, 3% paraformaldehyde): completely blocked
- time at which cholesterol efflux from ABCA1 cells was first detectable [1, 6]: 2 h
- lipid (cholesterol and phospholipid) efflux from ABCA1 cells ([1]; 18 hours): do so after transfection with ABCA1
- protein concentration at which lipid efflux began to show saturation ([1]; 18 hours): ~10 µg/mL
- molar concentration at which lipid efflux began to show saturation ([1]; corresponds to 10 μg/ml): 0.36 µM
- binding of labeled L-37pA to ABCA1 cells blocked by competitor (ABCA1 cells [4]): approximately 30%
- cholesterol efflux from normal fibroblasts (Normal skin fibroblasts): effluxed cholesterol
- cholesterol efflux from Tangier disease fibroblasts [5]: did not efflux significant amounts
